From US8962639B2, “Potassium channel modulators” (AbbVie Inc., priority 2009, dated 2015)

Biological target: T1, human KCNQ2 and KCNQ3 (Homo sapiens, UniProt O43525+O43526)
T1 construct: expressed in transfected cells; host or cells: HEK293
Assay: KCNQ 2/3 channel activation, thallium flux FLIPR assay (BTC-AM dye) in HEK293 cells
Type: cell-based
Settings: for Emax: HEK293, maximum response relative to response of retigabine at 10 μM set at 100%, read-out: Max response; for EC50: HEK293 cells stably expressing human KCNQ2 and KCNQ3, compound incubated 4 minutes, Tl+ flux fluorescence
Protocol: The following example describes the assay that can be used to identify compounds that activate KCNQ 2/3 channels.
HEK293 cells stably expressing human KCNQ2 and KCNQ3 were seeded in 96-well, black-walled, clear-bottomed, poly-D-lysine coated plates (BD Biosciences, Bedford, Mass.) at a density of 1×10^5 cells per well 24 hours before the assay. On the assay day, BTC-AM dye (Invitrogen, Carlsbad, Calif.) was loaded into the cells by replacing the cell culture medium with 100 μL/well of 4 μM dye in DPBS. Dye loading was allowed to proceed for 2 hours at room temperature and then cells were washed twice in 100 μL/well of assay buffer (in mM: 10 HEPES pH 7.3, 5 glucose, 140 Na-gluconate, 2.5 K-gluconate, 3.6 Ca-gluconate, 2 MgSO4, 0.1 Ouabain) to remove unloaded dye. Cells were incubated in 50 μL of assay buffer before loading onto a FLIPR system (Molecular Devices, Sunnyvale, Calif.). Various concentrations of compounds to be assayed were added to the cells in 50 μL of assay buffer and incubated for 4 minutes. The fluorescence signal was initiated by adding 100 μL of assay buffer containing 6 mM TlNO3 and 10 mM K2SO4. Fluors were excited using the 488-nm line of an argon laser and emission was filtered using a 540±30 nm bandpass filter. Fluorescent signals were recorded for 3 minutes. Responses over baseline values were plotted versus concentrations of test compounds to obtain an EC50 value. The maximum response for each test compound was determined relative to the response produced at 10 μM by retigabine. The maximum response of retigabine at 10 μM was set at 100%.

T1 sequence (O43526 whole entry): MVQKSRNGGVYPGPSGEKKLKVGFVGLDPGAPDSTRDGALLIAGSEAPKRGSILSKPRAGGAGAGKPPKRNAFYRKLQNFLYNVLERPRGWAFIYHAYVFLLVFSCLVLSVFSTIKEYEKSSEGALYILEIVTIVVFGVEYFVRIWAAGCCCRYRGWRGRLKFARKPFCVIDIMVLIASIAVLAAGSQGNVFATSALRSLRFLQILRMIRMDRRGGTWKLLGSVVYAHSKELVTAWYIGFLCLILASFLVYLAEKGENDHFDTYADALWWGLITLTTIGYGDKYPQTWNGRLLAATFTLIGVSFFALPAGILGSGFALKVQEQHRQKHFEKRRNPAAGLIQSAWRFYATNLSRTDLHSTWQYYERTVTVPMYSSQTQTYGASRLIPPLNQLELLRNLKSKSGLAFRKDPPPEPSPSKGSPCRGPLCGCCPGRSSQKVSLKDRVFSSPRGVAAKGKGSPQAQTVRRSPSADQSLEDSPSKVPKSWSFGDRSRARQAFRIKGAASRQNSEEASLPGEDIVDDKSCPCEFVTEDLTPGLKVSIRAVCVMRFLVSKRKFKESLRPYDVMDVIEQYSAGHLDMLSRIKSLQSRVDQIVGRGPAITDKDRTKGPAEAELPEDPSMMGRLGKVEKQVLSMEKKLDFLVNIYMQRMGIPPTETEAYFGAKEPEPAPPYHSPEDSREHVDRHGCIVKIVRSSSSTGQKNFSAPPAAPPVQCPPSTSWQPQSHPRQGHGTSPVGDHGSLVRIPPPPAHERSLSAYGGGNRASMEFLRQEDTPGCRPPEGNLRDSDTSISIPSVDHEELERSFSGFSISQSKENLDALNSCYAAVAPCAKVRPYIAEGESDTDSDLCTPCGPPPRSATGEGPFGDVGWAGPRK
T1 sequence (O43525 whole entry): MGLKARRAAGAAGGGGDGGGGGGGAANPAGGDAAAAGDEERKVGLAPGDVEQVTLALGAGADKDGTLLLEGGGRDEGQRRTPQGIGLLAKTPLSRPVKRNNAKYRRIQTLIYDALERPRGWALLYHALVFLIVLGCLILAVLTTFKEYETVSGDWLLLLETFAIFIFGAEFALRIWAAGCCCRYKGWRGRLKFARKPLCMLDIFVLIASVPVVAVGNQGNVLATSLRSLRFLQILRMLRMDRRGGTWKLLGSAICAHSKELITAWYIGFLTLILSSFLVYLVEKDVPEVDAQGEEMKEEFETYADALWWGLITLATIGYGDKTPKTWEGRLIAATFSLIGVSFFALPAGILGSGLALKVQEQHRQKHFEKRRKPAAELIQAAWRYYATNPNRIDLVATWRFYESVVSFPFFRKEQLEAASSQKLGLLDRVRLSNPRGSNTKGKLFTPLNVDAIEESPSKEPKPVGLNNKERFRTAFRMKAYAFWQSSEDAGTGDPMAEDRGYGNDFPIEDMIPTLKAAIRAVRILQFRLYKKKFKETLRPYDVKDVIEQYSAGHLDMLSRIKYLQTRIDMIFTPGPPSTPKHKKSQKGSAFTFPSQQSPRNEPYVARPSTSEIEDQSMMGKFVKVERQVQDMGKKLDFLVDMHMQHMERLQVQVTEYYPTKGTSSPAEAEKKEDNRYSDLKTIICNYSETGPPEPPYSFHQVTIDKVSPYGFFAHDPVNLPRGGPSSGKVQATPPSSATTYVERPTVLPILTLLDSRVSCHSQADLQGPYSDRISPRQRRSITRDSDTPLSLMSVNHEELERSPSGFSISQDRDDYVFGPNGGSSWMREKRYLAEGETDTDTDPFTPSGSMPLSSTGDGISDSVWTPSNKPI

| Compound | Emax [%] | EC50 [µM] | Max response (maximum response relative to response of retigabine at 10 μM set at 100%) [%] |
| --- | --- | --- | --- |
| Cc1nc2sccc2c(=O)n1NC(=O)CC12CC3CC(CC(C3)C1)C2 [Example 17, 2-(1-adamantyl)-N-(2-methyl-4-oxothieno[2,3-d]pyrimidin-3(4H)-yl)acetamide] | 61.1 | 2.5 |  |
| Cc1nc2ccccc2c(=O)n1NC(=O)CC12CC3CC(CC(C3)C1)C2 [Example 8, 2-(1-adamantyl)-N-(2-methyl-4-oxoquinazolin-3(4H)-yl)acetamide] | 108 | 0.684 |  |
| CC(C)c1nc2ccccc2c(=O)n1NC(=O)CC1C2CC3CC(C2)CC1C3 (stereo not drawn) [Example 1, 2-(2-adamantyl)-N-(2-isopropyl-4-oxoquinazolin-3(4H)-yl)acetamide] | 88.8 | 0.138 |  |
| CC(C)c1nc2ccccc2c(=O)n1NC(=O)CC1C2CCCC1CCC2 (stereo not drawn) [Example 56, 2-bicyclo[3.3.1]non-9-yl-N-(2-isopropyl-4-oxoquinazolin-3(4H)-yl)acetamide] | 158 | 0.104 |  |
| CC(C)c1nc2ccccc2c(=O)n1NC(=O)CC1CC2CCC1C2 (single isomer, unassigned; (+)) [Example 30, (+)-exo-2-[bicyclo[2.2.1]hept-2-yl]-N-(2-isopropyl-4-oxoquinazolin-3(4H)-yl)acetamide] |  | 0.0477 | 145 |
| CC(C)c1nc2ccccc2c(=O)n1NC(=O)CC1CC2C=CC1C2 (racemic) [Example 18, (±)-endo-2-bicyclo[2.2.1]hept-5-en-2-yl-N-(2-isopropyl-4-oxoquinazolin-3(4H)-yl)acetamide] | 163 | 0.747 |  |
| O=C(CCC1CCCC1)Nn1c(C23CC4CC(CC2C4)C3)nc2ccccc2c1=O [Example 3, 3-cyclopentyl-N-(2-hexahydro-2,5-methanopentalen-3a(1H)-yl-4-oxoquinazolin-3(4H)-yl)propanamide] | 171 | 0.277 |  |
| CC(C)c1nc2ccccc2c(=O)n1NC(=O)[C@@H]1C[C@@H]2CC[C@H]1C2 (racemic) [Example 22, (±)-endo-N-(2-isopropyl-4-oxoquinazolin-3(4H)-yl)bicyclo[2.2.1]heptane-2-carboxamide] | 124 | 0.404 |  |
| CCc1nc2ccccc2c(=O)n1NC(=O)CC1C2CCCC1CCC2 (stereo not drawn) [Example 57, 2-bicyclo[3.3.1]non-9-yl-N-(2-ethyl-4-oxoquinazolin-3(4H)-yl)acetamide] | 148 | 0.344 |  |
| O=C(CC12CC3CC(CC(C3)C1)C2)Nn1cnc2ccc(Cl)cc2c1=O [Example 16, 2-(1-adamantyl)-N-(6-chloro-4-oxoquinazolin-3(4H)-yl)acetamide] | 32.1 | 0.261 |  |
| O=C(CC12CC3CC(CC(Cl)(C3)C1)C2)Nn1c(C2CC2)nc2cc(C(F)(F)F)ccc2c1=O [Example 50, 2-[3-chloro-1-adamantyl]-N-[2-cyclopropyl-4-oxo-7-(trifluoromethyl)quinazolin-3(4H)-yl]acetamide] | -0.535 | > 31.6 |  |
| O=C(CC12CC3CC(CC(C3)C1)C2)Nn1cnc2ccc(Br)cc2c1=O [Example 36, 2-(1-adamantyl)-N-(6-bromo-4-oxoquinazolin-3(4H)-yl)acetamide] | 10.8 | > 30 |  |
| CCc1nc2sccc2c(=O)n1NC(=O)CC12CC3CC(CC(C3)C1)C2 [Example 14, 2-(1-adamantyl)-N-(2-ethyl-4-oxothieno[2,3-d]pyrimidin-3(4H)-yl)acetamide] | 120 | 0.691 |  |
| O=C(CC1CC2CCC1C2)Nn1c(-c2ccccc2)nc2ccccc2c1=O (racemic) [Example 12, (±)-exo-2-bicyclo[2.2.1]hept-2-yl-N-(4-oxo-2-phenylquinazolin-3(4H)-yl)acetamide] | 176 | 0.535 |  |
| Cc1nc2sc3c(c2c(=O)n1NC(=O)CC12CC4CC(CC(C4)C1)C2)CCCC3 [Example 44, 2-(1-adamantyl)-N-(2-methyl-4-oxo-5,6,7,8-tetrahydro[1]benzothieno[2,3-d]pyrimidin-3(4 H)-yl)acetamide] | 81.8 | 2.01 |  |
| O=C(CC12CC3CC(CC(C3)C1)C2)Nn1cnc2sc(-c3ccccc3)cc2c1=O [Example 37, 2-(1-adamantyl)-N-(4-oxo-6-phenylthieno[2,3-d]pyrimidin-3(4H)-yl)acetamide] | 9.51 | > 30 |  |
| CCc1nc2ccccc2c(=O)n1NC(=O)CC1CC2CCC1C2 (racemic) [Example 43, (±)-2-[(endo)-bicyclo[2.2.1]hept-2-yl]-N-(2-ethyl-4-oxoquinazolin-3(4 H)-yl)acetamide] | 150 | 0.386 |  |

| Compound | Emax [%] | EC50 [µM] | Max response (maximum response relative to response of retigabine at 10 μM set at 100%) [%] |
| --- | --- | --- | --- |
| O=C(CC12CC3CC(CC(C3)C1)C2)Nn1cnc2ccsc2c1=O [Example 26, 2-(1-adamantyl)-N-(4-oxothieno[3,2-d]pyrimidin-3(4H)-yl)acetamide] | 140 | 2.68 |  |
| CC(C)c1nc2ccccc2c(=O)n1NC(=O)C[C@@H]1C[C@@H]2CC(=O)C[C@@H](C2)C1 [Example 60] | 58 | > 31.6 |  |
| O=C(CC12CC3CC(CC(Cl)(C3)C1)C2)Nn1c(C2CC2)nc2cc(F)ccc2c1=O [Example 53] | 116 | 0.25 |  |
| O=C(Cc1ccc(Cl)cc1)Nn1c(C23CC4CC(CC2C4)C3)nc2ccccc2c1=O [Example 2, 2-(4-chlorophenyl)-N-(2-hexahydro-2,5-methanopentalen-3a(1H)-yl-4-oxoquinazolin-3(4H)-yl)acetamide] | 140 | 0.198 |  |
| O=C(C[C@@H]1C[C@@H]2C=C[C@H]1C2)Nn1c(-c2ccccc2)nc2ccccc2c1=O (racemic) [Example 19, (±)-endo-2-bicyclo[2.2.1]hept-5-en-2-yl-N-(4-oxo-2-phenylquinazolin-3(4H)-yl)acetamide] | 130 | 2.28 |  |
| CC(C)c1nc2ccccc2c(=O)n1NC(=O)CC1CC2CCC1C2 (single isomer, unassigned; (-)) [Example 29, (−)-exo-2-[bicyclo[2.2.1]hept-2-yl]-N-(2-isopropyl-4-oxoquinazolin-3(4H)-yl)acetamide] | 136 | 0.0167 |  |
| CC(C)c1nc2cc(-c3ccccc3F)sc2c(=O)n1NC(=O)CC1CC2CCC1C2 (racemic) [Example 41, (±)-2-[(exo)-bicyclo[2.2.1]hept-2-yl]-N-[6-(2-fluorophenyl)-2-isopropyl-4-oxothieno[3,2-d]pyrimidin-3(4H)-yl]acetamide] | 17 | > 30 |  |
| CC(C)c1nc2ccccc2c(=O)n1NC(=O)[C@H]1C[C@@H]2C=C[C@H]1C2 (racemic) [Example 32, (±)-(exo)-N-(2-isopropyl-4-oxoquinazolin-3(4H)-yl)bicyclo[2.2.1]hept-5-ene-2-carboxamide] | 99.2 | 2.23 |  |
| O=C(CC12CC3CC(CC(C3)C1)C2)Nn1c(-c2ccccc2)nc2ccccc2c1=O [Example 6, 2-(1-adamantyl)-N-(4-oxo-2-phenylquinazolin-3(4H)-yl)acetamide] | 103 | 0.341 |  |
| O=C(CC12CC3CC(CC(Cl)(C3)C1)C2)Nn1c(C2CC2)nc2ccccc2c1=O [Example 51, 2-[3-chloro-1-adamantyl]-N-(2-cyclopropyl-4-oxoquinazolin-3(4H)-yl)acetamide] | 152 | 0.16 |  |
| O=C(Nn1c(-c2ccccc2)nc2ccccc2c1=O)[C@H]1C[C@@H]2C=C[C@H]1C2 (racemic) [Example 34, (±)-(exo)-N-(4-oxo-2-phenylquinazolin-3(4 H)-yl)bicyclo[2.2.1]hept-5-ene-2-carboxamide] | 4.46 | 17.3 |  |
| O=C(CC12CC3CC(CC(C3)C1)C2)Nn1cnc2ccccc2c1=O [Example 7, 2-(1-adamantyl)-N-(4-oxoquinazolin-3(4H)-yl)acetamide] | 133 | 0.116 |  |
| CC(C)Sc1nc2sc(-c3ccccc3)cc2c(=O)n1NC(=O)CC12CC3CC(CC(C3)C1)C2 [Example 40, 2-(1-adamantyl)-N-[2-(isopropylthio)-4-oxo-6-phenylthieno[2,3-d]pyrimidin-3(4H)-yl]acetamide] | 19.2 | > 30 |  |
| CCc1cc2c(=O)n(NC(=O)CC34CC5CC(CC(C5)C3)C4)cnc2s1 [Example 20, 2-(1-adamantyl)-N-(6-ethyl-4-oxothieno[2,3-d]pyrimidin-3(4H)-yl)acetamide] | 139 | 0.438 |  |
| O=C(CC1CC2CCC1C2)Nn1cnc2ccccc2c1=O (racemic) [Example 10, (±)-exo-2-bicyclo[2.2.1]hept-2-yl-N-(4-oxoquinazolin-3(4H)-yl)acetamide] | 131 | 4.95 |  |
| CCc1nc2ccccc2c(=O)n1NC(=O)[C@@H]1[C@H]2[C@@H]3CC[C@@H](C3)[C@@H]12 [Example 58, (exo,exo)-N-(2-ethyl-4-oxoquinazolin-3(4H)-yl)tricyclo[3.2.1.0^2,4]octane-3-carboxamide] | 11.6 | > 31.6 |  |
